In assay [1] the test system is HT-29. The assay is described as follows: ROS-Glo H2O2 assay, HT-29. It is filed as cell-based, Human. Particulars: HT-29, 6 h incubation. An excerpt:
(§1) According to previous studies, ERMAs inhibited glucose utilization in cancer cells[13],[19]. Therefore, we investigated glucose uptake (Fig. 5A) upon treatment with 9b and 9f in HT-29 and HCT116 cells at different concentrations based on the IC50 of each compound. […] This effect is known to result in the accumulation of reactive oxygen species (ROS) and could play a role in glucose deprivation-induced cytotoxicity and oxidative stress in cancer cells. […] The observed increase in ROS levels could lead to oxidative stress and extensive cell death in the absence of NADPH detoxification.
(§2) NADPH/NADP+ and ROS concentrations were measured using the NADP/NADPH-Glo Assay Kit (Promega, Madison, WI, USA) and ROS-Glo H2O2 Assay (Promega, Madison, WI, USA), respectively, based on the manufacturer instructions. In NADPH/NADP+ assay, CRC cells were seeded into a 96-well flat-bottomed plate and incubated overnight. On the following day, cells were treated with the testing compound or vehicle for 48 h. At the endpoint of treatment, the media were aspirated and replaced with 60 µl PBS/well, then cells were lysed in 60 µl base solution with 1% dodecyl (trimethyl) ammonium bromide (Sigma-Aldrich-St. Louis, MO, USA). […] Luminescence was measured after 30 minutes using Varioskan Flash multimode reader (Thermo Scientific). […] Luminescence was measured after 20 min incubation at room temperature.

Assay [2] relates to HT-29. The assay is described as follows: MTT cell viability, HT-29. It is filed as cell-based, Human. The following applies: 72 h, MTT assay, mean ± SD (n = 6), read-out: half-maximal inhibitory concentration (IC50) HT-29. How it is done:
(§3) The potential cytotoxicity of 24 candidate compounds was initially evaluated at a single concentration level (5 μM). Then a full dose-response curve was plotted for each compound against different colorectal cancer cell lines (HCT116 and HT-29) by MTT assay after 72 h treatments. 4-hydroxycoumarin, OSU-CG5, and OSU-CG12 were used as positive controls. […] Compounds 9b, 9c, 9f, 9i, 11b, and 11c were selected for further studies to determine the full dose-response survival curves using different concentrations (0.1–20 µM) against CRC cell lines and normal fibroblast cell line (F180) at different time points (Fig. 2A–2F and supplementary material Page S63 and S64).
Human colorectal carcinoma cell lines (HCT116) and (HT-29) were obtained from the European Collection of Cell Cultures (ECACC, UK). The cell lines were cultured in Roswell Park Memorial Institute medium (RPMI-1640, Sigma-Aldrich-St. Louis, MO, USA) supplemented with 10% fetal bovine serum (Sigma-Aldrich-St. Louis, MO, USA) and 1% penicillin/streptomycin (Sigma-Aldrich- Louis, MO, USA). F180 cell line (Human Normal Fibroblast), was kindly given by professor Ekkehard Dikomey (University Cancer Center, Hamburg University, Hamburg, Germany) and were cultured in Dulbecco’s Modified Eagle’s medium (DMEM, Sigma-Aldrich-St. Louis, MO, USA) supplemented with 10% fetal bovine serum (Sigma-Aldrich-St. Louis, MO, USA) and 1% penicillin/streptomycin (Sigma-Aldrich- Louis, MO, USA). All cell incubations were done at 37 °C in a humidified atmosphere of 5% CO2.
Cell viability was assessed using, 3-(4,5-dimethylthiazol-2-yl)-2,5-diphenyltetrazolium bromide (MTT) assay as previously described. In summary, cancer cell lines or F180 were seeded in complete medium at the density of 3 × 10^3/well and 5 × 10^3/well respectively in 96 well flat-bottom plates. After 24 h, cells were incubated with the candidate compounds at the indicated concentration for (24, 48 or 72 h). DMSO was used as vehicle control and 4-Hydroxycoumarin was purchased from (Sigma-Aldrich, St. Louis, MO, USA) and Cisplatin from Hospira UK Ltd. At the end of treatment, the media were aspirated from each well and incubated with 200 µL of MTT tetrazolium dye (Sigma-Aldrich, St. Louis, MO, USA) at a final concentration of 0.5 mg/ml for 2 h at 37 °C. The reduced MTT crystals were solubilized in 200 µl/well of DMSO and the absorbance was measured at 570 nm using a microplate reader (Thermo-Scientific, Vantaa, Finland).
In general terms: Tetrazolium dyes change colour on reduction, which living cells bring about.

The subject of a further assay is CRC cells. The assay is described as follows: NADPH/NADP+ assay. It is filed as cell-based, Human. The following applies: 48 h treatment.
From the text: as §1, §2

Assay [3] deals with normal fibroblast cell line (F180). The assay is described as follows: MTT cell viability, normal fibroblasts F180. Particulars: Homo sapiens, read-out: IC50 on normal cells. It is filed as cell-based. How it is done:
as §3
Human colorectal carcinoma cell lines (HCT116) and (HT-29) were obtained from the European Collection of Cell Cultures (ECACC, UK). The cell lines were cultured in Roswell Park Memorial Institute medium (RPMI-1640, Sigma-Aldrich-St. Louis, MO, USA) supplemented with 10% fetal bovine serum (Sigma-Aldrich-St. Louis, MO, USA) and 1% penicillin/streptomycin (Sigma-Aldrich- Louis, MO, USA). […]
Cell viability was assessed using, 3-(4,5-dimethylthiazol-2-yl)-2,5-diphenyltetrazolium bromide (MTT) assay as previously described. […] The reduced MTT crystals were solubilized in 200 µl/well of DMSO and the absorbance was measured at 570 nm using a microplate reader (Thermo-Scientific, Vantaa, Finland).

Where two headings read alike, the source gives them in different places.

For the molecule `Cc1cc(=O)oc2cc(Nc3nc(-c4ccc(Br)cc4)cs3)ccc12` [Compound 9b, 7-(4-(4-Bromophenyl)thiazol-2-ylamino)-4-methyl-2H-chromen-2-one], the “generation of hydrogen peroxide (H2O2) and ROS” value in the assay on HT-29 [1] is reported as “significantly increased”. Moreover, the IC50 in the assay with HT-29 [2] amounted to 0.38 ± 0.044 µM; in the assay on HT-29 [2] (Homo sapiens, HT-29, 72 h) it was 0.53 µM. The “NADPH/NADP+ ratio” value in the assay on CRC cells was “significant decrease”.
With `Cc1cc(=O)oc2cc(Nc3nc(-c4cccc([N+](=O)[O-])c4)cs3)ccc12` [Compound 9f, 4-Methyl-7-(4-(3-Nitrophenyl)thiazol-2-ylamino)-2H-chromen-2-one], the IC50 in the assay on HT-29 [2] amounted to 3.96 ± 0.506 µM; in the assay on HT-29 [2] (Homo sapiens, HT-29, 72 h) it was 2.56 µM; in assay [3] it was 7.97 µM. The “NADPH/NADP+ ratio” value with CRC cells is recorded as “significant decrease”.

The values are drawn from article PMC7031302, “Design and synthesis of new energy restriction mimetic agents: Potent anti-tumor activities of hybrid motifs of aminothiazoles and coumarins” (Scientific Reports, 2020).
